Values joined by “and” are separate entries in the source; they are usually repeats but may differ in a detail not shown here. Equal values may be shown once. Active and inactive are the calls of the source.
Columns and labels:
[1] = molecular target: Cytochrome P450 3A4 (Homo sapiens, UniProt P08684); conditions: Potency;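 further: confirmatory qHTS run detecting inhibitors and substrates of CYP3A4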
[2] = molecular target: T1, Aminopeptidase N (Plasmodium falciparum FcB1/Columbia, UniProt O96935); experiment: malaria alanyl aminopeptidase activity blockers – biochemical, fluorogenic H-Leu-NHMec substrate, 1536-well (AID 1445); design: species or system Plasmodium falciparum 3D7, 3D7
T1 sequence (O96935 whole entry): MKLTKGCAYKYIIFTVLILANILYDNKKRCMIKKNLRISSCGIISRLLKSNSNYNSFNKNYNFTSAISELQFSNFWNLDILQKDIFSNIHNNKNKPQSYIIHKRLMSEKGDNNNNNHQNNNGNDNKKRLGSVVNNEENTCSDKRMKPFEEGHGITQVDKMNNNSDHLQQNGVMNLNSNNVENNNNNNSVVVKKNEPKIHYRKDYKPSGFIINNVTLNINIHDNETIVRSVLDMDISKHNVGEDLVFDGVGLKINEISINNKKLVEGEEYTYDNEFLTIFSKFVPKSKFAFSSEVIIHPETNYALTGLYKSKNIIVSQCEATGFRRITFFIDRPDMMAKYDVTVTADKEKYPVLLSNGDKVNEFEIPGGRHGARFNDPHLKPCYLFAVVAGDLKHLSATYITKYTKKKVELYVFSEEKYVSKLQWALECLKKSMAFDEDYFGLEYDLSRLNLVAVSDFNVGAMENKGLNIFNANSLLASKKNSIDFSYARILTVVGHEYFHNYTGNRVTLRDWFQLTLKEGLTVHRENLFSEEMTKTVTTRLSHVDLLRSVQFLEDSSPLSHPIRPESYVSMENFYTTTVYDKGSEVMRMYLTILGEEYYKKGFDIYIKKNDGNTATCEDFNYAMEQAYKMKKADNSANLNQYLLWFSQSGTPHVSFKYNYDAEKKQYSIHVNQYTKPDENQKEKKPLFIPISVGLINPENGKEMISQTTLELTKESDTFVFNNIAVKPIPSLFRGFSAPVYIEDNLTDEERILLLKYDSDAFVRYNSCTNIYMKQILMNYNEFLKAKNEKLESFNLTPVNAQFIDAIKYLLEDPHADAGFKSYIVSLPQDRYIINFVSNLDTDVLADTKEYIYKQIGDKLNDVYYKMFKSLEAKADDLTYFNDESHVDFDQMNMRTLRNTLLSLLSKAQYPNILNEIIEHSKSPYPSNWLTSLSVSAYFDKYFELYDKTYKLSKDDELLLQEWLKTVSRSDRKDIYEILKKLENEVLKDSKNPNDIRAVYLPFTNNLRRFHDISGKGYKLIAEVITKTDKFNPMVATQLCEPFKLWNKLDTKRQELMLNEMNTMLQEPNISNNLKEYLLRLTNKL

[3] = molecular target: T2, Coagulation factor XII (Homo sapiens, UniProt P00748); type: functional;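 further: activated factor XIIa alpha cleaving a fluorogenic AMC peptide substrate; inhibitor potency from loss of enzyme activity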
T2 sequence (P00748 whole entry): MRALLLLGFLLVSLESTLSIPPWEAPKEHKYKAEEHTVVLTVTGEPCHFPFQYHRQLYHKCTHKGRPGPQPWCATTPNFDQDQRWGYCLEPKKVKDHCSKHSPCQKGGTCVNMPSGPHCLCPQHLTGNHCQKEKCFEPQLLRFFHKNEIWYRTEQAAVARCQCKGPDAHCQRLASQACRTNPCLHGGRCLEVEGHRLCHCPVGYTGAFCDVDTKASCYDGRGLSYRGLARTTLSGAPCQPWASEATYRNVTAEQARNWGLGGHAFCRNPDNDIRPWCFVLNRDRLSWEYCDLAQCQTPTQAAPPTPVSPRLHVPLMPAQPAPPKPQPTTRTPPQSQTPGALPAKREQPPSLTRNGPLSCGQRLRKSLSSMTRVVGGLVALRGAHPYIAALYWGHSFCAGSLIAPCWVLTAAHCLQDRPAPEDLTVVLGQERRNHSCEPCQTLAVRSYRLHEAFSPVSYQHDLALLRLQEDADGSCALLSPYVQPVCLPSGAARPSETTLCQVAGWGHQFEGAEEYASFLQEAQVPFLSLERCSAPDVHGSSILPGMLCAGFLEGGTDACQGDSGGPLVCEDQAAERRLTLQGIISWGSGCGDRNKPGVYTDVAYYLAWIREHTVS

[4] = HEK-293T cell viability reduction – luminescence, B-cell screen hits, cytotoxicity control for BCR NF-kB inhibitor project, dose response (AID 489021); type: functional, cell-based;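 further: HEK-293T cells carrying an NF-kB luciferase reporter; cells exposed to compound for about 14 hours before viability readout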
[5] = THP-1 cell cytotoxicity, dose response, cytotoxicity control for non-replicating M. tuberculosis project (AID 489025); type: functional
[6] = cells; type: functional
[7] = molecular target: DNA dC->dU-editing enzyme APOBEC-3G (Homo sapiens, UniProt Q9HC16); type: functional;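 further: Dose-response counterscreen measuring inhibition of APOBEC3G DNA deaminase activity, run while confirming APOBEC3A inhibitors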
[8] = molecular target: DNA dC->dU-editing enzyme APOBEC-3A (Homo sapiens, UniProt P31941); experiment: Dose Response confirmation of small molecule APOBEC3A DNA Deaminase Inhibitors via a fluorescence-based single-stranded DNA deaminase assay. [Related pubchem assays (depositor defined):AID493011, AID493024]; type: functional
DNA dC->dU-editing enzyme APOBEC-3A, sequence (P31941 whole entry): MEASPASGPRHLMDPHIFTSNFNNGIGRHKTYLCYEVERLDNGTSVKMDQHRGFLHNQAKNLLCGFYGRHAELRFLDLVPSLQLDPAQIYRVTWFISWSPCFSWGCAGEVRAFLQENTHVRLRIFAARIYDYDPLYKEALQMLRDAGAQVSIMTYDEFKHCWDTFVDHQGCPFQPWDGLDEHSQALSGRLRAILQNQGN

[9] = molecular target: T3, Voltage-gated N-type calcium channel alpha-1B subunit/Amyloid beta A4 precursor protein-binding family A member 1 (Homo sapiens, UniProt Q00975+Q02410); type: protein assay
T3 sequence (Q00975 whole entry): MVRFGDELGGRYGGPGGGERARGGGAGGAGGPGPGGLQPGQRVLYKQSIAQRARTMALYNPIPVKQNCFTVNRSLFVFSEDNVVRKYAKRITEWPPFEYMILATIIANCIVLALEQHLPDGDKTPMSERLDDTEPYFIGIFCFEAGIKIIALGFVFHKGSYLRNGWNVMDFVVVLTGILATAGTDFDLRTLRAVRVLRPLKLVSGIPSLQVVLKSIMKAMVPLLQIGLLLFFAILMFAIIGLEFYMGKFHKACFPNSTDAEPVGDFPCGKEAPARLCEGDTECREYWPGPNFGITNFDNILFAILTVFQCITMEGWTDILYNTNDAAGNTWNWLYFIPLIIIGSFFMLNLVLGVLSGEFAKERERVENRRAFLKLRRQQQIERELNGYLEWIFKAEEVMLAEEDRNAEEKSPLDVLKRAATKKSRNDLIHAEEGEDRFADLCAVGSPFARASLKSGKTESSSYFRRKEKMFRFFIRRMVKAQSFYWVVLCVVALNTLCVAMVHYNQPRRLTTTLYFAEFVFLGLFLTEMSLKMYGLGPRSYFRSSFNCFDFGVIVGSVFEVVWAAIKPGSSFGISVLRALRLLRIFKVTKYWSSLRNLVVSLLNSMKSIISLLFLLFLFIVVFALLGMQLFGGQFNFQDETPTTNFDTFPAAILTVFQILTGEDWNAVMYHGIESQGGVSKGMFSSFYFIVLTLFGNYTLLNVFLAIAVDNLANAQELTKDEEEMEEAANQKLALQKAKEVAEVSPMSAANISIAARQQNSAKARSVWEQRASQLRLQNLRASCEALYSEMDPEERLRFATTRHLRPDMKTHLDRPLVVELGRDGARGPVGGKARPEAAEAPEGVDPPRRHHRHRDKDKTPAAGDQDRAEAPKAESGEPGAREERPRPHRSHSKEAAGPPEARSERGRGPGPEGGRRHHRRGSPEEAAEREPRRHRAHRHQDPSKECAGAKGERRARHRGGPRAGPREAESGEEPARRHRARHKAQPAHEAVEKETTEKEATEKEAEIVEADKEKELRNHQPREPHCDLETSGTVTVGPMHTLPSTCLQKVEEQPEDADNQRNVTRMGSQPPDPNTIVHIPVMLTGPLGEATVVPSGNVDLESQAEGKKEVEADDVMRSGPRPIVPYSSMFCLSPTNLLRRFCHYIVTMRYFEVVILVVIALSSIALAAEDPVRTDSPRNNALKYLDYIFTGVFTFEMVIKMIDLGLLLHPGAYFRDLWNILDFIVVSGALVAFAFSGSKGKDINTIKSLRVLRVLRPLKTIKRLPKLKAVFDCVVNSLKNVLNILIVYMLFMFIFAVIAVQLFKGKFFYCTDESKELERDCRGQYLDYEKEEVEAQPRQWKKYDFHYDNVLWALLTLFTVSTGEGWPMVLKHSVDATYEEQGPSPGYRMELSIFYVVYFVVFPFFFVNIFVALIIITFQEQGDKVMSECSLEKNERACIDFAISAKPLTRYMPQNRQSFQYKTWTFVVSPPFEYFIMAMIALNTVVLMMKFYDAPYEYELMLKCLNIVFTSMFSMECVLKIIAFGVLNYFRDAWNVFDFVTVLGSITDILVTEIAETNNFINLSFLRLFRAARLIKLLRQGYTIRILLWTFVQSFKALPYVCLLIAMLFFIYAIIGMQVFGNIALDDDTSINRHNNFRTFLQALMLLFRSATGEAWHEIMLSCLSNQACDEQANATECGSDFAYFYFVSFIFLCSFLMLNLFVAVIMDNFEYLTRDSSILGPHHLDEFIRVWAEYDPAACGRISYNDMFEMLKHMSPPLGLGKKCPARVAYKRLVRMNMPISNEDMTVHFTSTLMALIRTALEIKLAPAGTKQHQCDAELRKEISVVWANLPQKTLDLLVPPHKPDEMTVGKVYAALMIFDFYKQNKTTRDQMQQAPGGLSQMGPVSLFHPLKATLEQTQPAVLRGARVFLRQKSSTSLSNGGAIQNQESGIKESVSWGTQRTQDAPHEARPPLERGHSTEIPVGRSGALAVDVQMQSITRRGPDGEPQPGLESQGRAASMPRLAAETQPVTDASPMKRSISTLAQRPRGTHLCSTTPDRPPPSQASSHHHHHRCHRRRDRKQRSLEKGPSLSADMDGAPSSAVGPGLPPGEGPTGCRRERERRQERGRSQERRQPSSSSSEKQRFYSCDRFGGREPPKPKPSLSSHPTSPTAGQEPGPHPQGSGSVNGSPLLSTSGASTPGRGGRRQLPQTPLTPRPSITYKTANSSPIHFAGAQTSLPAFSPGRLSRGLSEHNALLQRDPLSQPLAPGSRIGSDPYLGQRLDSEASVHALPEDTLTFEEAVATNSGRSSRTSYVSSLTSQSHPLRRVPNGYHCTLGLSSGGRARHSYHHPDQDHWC
T3 sequence (Q02410 whole entry): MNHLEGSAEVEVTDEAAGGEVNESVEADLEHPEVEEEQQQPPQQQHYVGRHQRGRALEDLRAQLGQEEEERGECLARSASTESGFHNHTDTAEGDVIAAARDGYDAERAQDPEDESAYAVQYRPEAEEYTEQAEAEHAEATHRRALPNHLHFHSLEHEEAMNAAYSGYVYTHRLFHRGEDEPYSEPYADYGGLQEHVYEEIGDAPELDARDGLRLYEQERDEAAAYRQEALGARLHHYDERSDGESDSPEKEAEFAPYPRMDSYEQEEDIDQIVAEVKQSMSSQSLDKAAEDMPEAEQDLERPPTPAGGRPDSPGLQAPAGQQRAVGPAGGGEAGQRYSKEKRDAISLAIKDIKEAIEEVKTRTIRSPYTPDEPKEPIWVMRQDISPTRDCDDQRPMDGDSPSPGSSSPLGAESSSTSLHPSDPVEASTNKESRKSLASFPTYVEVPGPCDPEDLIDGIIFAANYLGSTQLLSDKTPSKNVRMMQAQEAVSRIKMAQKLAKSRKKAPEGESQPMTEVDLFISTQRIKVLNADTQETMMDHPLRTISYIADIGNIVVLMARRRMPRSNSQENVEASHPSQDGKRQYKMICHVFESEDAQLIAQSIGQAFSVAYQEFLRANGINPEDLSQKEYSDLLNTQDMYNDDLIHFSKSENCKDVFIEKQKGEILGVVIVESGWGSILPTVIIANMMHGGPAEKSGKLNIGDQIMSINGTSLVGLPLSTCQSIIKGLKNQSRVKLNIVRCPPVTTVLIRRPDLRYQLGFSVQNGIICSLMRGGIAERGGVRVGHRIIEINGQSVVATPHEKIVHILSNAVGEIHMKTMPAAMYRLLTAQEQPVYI

[10] = molecular target: T3, Voltage-gated N-type calcium channel alpha-1B subunit/Amyloid beta A4 precursor protein-binding family A member 1; type: protein assay; remark: listed apart in the source
[11] = molecular target: Large T antigen (Simian virus 40, UniProt P03070); type: functional, Betapolyomavirus macacae;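 further: Confirmatory-stage PubChem screen for compounds that inhibit SV40 T antigen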
[12] = molecular target: T4, Phosphomannomutase 2 (Homo sapiens, UniProt O15305); experiment: Counter screen SAR assay for PMM2 inhibitors via a fluorescence intensity assay. [Related pubchem assays (depositor defined):AID1545, AID1574]
T4 sequence (O15305 whole entry): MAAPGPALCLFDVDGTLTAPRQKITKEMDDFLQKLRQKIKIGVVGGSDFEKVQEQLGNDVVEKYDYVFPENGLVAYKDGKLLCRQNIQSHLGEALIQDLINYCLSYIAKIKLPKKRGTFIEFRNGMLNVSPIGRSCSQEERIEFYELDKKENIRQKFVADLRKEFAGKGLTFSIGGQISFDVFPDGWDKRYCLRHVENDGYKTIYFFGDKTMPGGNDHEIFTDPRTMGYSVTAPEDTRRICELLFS

[13] = molecular target: T5, Mannose-6-phosphate isomerase (Homo sapiens, UniProt P34949); experiment: phosphomannose isomerase inhibition – biochemical, fluorescence intensity, confirmation (AID 1535)
T5 sequence (P34949 whole entry): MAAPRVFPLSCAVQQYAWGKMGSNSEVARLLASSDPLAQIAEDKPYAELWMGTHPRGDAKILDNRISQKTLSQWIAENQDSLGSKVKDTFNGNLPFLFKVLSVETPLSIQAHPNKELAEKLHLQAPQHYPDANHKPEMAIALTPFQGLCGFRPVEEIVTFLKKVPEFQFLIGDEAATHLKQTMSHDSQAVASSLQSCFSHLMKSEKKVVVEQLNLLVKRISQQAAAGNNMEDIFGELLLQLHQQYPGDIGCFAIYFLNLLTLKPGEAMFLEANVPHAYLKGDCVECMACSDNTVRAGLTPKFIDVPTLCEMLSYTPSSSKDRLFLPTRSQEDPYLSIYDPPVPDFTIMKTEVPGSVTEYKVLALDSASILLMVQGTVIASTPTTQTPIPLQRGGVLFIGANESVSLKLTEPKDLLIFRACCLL

[14] = molecular target: Troponin, cardiac muscle (Homo sapiens, UniProt P19429+P45379+P63316); experiment: Fluorescence-based biochemical high throughput dose response assay for activators of the calcium sensitivity of cardiac Regulated Thin Filaments (RTF). [Related pubchem assays (depositor defined):AID493008, AID493018, AID504382, AID504383]; type: protein-complex assay
[15] = molecular target: T6, Hexokinase (Trypanosoma brucei, UniProt Q38C41); experiment: Confirmation assay for inhibitors of Trypanosoma brucei hexokinase 1-Analogue-first series. [Related pubchem assays (depositor defined):AID1430, AID1632, AID2516, AID2560, AID2579, AID2600, AID449725, AID492951]; type: functional
T6 sequence (Q38C41 whole entry): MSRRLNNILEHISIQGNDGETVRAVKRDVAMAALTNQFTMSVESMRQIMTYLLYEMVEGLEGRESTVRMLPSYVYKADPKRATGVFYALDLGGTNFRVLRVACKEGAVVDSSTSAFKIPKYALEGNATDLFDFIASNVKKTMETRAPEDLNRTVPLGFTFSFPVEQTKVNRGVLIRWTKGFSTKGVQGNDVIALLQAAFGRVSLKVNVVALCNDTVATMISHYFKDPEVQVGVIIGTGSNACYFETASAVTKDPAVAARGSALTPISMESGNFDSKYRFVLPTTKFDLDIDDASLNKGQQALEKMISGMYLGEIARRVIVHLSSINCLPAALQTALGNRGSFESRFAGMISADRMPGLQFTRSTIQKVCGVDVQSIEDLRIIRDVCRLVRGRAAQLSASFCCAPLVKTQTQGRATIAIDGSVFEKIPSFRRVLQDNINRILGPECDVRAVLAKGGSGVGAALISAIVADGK

[16] = molecular target: Glucose-6-phosphate 1-dehydrogenase (Homo sapiens, UniProt P11413); experiment: inhibition of Homo sapiens G6PD, dose series – biochemical, fluorescence, selectivity assay for P. falciparum G6PD inhibitor project, dose response (AID 504792); type: functional
Glucose-6-phosphate 1-dehydrogenase, sequence (P11413 whole entry): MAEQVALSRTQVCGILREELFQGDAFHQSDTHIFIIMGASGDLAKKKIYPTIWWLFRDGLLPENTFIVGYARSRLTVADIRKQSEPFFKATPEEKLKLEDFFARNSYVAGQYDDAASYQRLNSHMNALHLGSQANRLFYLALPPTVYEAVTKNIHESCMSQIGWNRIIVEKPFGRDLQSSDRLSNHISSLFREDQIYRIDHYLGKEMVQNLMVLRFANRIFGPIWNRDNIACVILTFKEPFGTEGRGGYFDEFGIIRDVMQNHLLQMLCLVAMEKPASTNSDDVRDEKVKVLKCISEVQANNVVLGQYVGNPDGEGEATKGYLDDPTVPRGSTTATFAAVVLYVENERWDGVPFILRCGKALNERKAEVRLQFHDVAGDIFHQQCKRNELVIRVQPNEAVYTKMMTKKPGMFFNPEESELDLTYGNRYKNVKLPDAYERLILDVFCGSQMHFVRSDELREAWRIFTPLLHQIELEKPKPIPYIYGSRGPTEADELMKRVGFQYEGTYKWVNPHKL

[17] = molecular target: T7, Alkaline phosphatase, tissue-nonspecific isozyme (Homo sapiens, UniProt P05186); experiment: potency against alkaline phosphatase TNAP – biochemical, luminescent, dose response, SAR follow-up (AID 1056)
T7 sequence (P05186 whole entry): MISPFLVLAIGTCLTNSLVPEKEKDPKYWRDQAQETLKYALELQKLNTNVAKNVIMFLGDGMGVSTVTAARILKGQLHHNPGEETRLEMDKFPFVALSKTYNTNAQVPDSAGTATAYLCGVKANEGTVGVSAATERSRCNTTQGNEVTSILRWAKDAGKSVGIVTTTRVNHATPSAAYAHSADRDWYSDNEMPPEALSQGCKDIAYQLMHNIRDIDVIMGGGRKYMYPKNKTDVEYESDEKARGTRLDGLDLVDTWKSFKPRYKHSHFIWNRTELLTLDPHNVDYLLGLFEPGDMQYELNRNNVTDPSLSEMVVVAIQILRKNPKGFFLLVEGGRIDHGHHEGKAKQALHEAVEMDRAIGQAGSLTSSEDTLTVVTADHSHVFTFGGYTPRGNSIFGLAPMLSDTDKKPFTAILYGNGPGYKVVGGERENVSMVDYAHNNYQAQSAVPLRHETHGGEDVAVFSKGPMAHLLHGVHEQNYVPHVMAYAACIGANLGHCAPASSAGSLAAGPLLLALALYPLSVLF

[18] = molecular target: Alkaline phosphatase, placental type (Homo sapiens, UniProt P05187); experiment: human placental alkaline phosphatase inhibition – biochemical, luminescence, confirmation (AID 1512); type: functional
Alkaline phosphatase, placental type, sequence (P05187 whole entry): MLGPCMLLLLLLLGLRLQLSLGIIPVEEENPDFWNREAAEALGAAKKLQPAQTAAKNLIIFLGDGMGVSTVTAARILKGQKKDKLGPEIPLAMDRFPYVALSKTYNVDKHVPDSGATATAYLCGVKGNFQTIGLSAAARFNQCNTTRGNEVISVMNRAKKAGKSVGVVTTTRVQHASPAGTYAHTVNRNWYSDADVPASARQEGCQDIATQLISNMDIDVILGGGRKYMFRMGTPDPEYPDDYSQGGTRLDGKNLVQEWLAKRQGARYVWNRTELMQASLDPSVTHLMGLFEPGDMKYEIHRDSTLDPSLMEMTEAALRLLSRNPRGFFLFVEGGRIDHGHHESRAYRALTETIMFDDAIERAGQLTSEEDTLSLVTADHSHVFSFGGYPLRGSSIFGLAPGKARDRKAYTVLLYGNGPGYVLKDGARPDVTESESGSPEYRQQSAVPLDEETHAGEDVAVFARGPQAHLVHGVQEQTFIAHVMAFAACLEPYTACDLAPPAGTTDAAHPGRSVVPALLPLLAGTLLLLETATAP

Cytochrome P450 3A4, sequence (P08684 whole entry): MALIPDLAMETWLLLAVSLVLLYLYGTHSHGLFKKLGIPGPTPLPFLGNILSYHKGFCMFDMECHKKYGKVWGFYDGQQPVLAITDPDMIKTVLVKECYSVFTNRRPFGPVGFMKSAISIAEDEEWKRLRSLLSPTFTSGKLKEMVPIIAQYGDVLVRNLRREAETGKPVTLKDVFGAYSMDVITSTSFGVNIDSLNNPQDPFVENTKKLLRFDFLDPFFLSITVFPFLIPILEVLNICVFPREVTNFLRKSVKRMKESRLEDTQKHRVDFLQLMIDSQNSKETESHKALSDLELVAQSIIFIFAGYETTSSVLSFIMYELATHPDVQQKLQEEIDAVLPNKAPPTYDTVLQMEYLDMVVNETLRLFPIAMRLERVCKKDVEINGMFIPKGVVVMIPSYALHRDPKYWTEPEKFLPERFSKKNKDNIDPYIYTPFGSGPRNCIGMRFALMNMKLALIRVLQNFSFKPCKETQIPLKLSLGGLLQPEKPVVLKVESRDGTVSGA

CCC(=O)OCC(=O)C1(OC(=O)CC)C(C)CC2C3CCC4=CC(=O)C=CC4(C)C3(Cl)C(O)CC21C (configuration not stated)
AC50 [1]: 12.6 µM (inconclusive)

CCCCc1cc(=O)oc2c(CN(C)C)c(O)c(Cl)cc12
IC50 [2]: 27.3 µM (active)

O=S(=O)(c1ccc(S(=O)(=O)N2CCCC2)cc1)N1CCCCCC1
IC50 [3]: > 50 µM (inactive)

Cn1c(=O)cc(OCCCC(=O)N2CCCCC2)c2ccccc21
IC50 [4]: > 80 µM (inactive)

O=C(OCC(=O)N1CCN(c2ccccc2)CC1)c1cnc(Cl)c(Cl)c1
CC50 [5]: 34.2 µM (active)
IC50 [6]: 3.69 µM (active)

CC(C)C[C@@H](N)c1nnc(SCC(=O)c2ccc(Cl)cc2)o1
IC50 [4]: > 80 µM (inactive)

N#Cc1cccc(NC(=O)C[n+]2c3n(c4ccc(C(F)(F)F)cc42)CCCCC3)c1
IC50 [7]: 2.75 µM (active)
IC50 [8]: 1.97 µM (active)

CN1C(=O)C(=C/C=C/Nc2ccccc2)C(=O)N(C)C1=S
IC50 [9]: 6.18 µM (active)
IC50 [10]: > 50 µM (inactive)

N=C1/C(=C\c2coc3ccc(O)cc3c2=O)C(=O)N=C2SC=CN12
IC50 [11]: 15.8 µM (active)
IC50 [2]: 57.6 µM (active)

COc1ccc(N2C(=O)CC(Nc3cccc([N+](=O)[O-])c3)C2=O)cc1 (configuration not stated)
IC50 [3]: > 50 µM (inactive)

Cc1cc2n(n1)SC(Nc1cc(Cl)ccc1Cl)N2 (configuration not stated)
IC50 [12]: > 100 µM (inactive)
IC50 [13]: > 50 µM (inactive)

O=C(O)c1cc(NCc2ccc(F)cc2)ccc1N1CCOCC1
EC50 [14]: > 71.5 µM (inactive)

CC(=O)Nc1ccc(OC(=O)c2cc3cc(Br)ccc3oc2=O)cc1
IC50 [9]: 2 µM (active)
IC50 [10]: > 50 µM (inactive)

CCOC(=O)c1cc(-c2cccc([N+](=O)[O-])c2)nc2[nH]c(=O)[nH]c(=O)c12
IC50 [2]: 7.44 µM (active)

COc1ccc(C(=O)Nc2cc(Cl)ccc2C#N)cc1
IC50 [15]: > 25 µM (inactive)

O=c1c2ccccc2sn1-c1ncc([N+](=O)[O-])s1
IC50 [12]: > 100 µM (inactive)
IC50 [13]: 22.7 µM (active)

COc1ccc(N2C(=O)c3ccc(Cl)cc3C2=O)cc1
IC50 [15]: > 25 µM (inactive)

O=c1c2ccccc2sn1-c1ccccc1Cl
IC50 [15]: 1.97 µM (active)

COc1cc(C(=O)O/N=C2\C=CC(=O)C=C2C)cc(OC)c1OC
IC50 [3]: 10.3 µM (active)
IC50 [16]: > 80 µM (inactive)

CC1(C)CC(=O)C=C(Nc2ccccc2N)C1
EC50 [14]: > 71.5 µM (inactive)

Cc1ccc(-c2nnc(SCC(=O)c3ccc(O)c(O)c3)n2-c2ccccc2)cc1
IC50 [17]: > 100 µM (inactive)
IC50 [18]: > 100 µM (inactive)

O=c1cc(-c2ccccc2)oc2cccc(O)c12 [5-HYDROXYFLAVONE]
AC50 [1]: 6.31 µM (inconclusive) and 20 µM (inconclusive)

C#CCCCCCCCCCCCC(O)CC(O)CO (configuration not stated) [AVOCADYNE]
AC50 [1]: 39.8 µM (inconclusive)
